Assay results taken from patent US6555333B1, “Broad spectrum fastidious organism culture medium” (priority 2002, dated 2003).
Where two headings read alike, the source gives them in different places.

Legend:
Haemophilus influenzae [1] = settings: different known culture media; cited from earlier work
Haemophilus influenzae [2] = test: MIC testing (Etest strip) on the culture medium of Example 1; format: cell-based; settings: for Observed MIC Breakpoints I: I = intermediate; for Observed MIC Breakpoints R: R = resistant; for Observed MIC Breakpoints S: S = susceptible
Source text: (§1) The culture medium of the invention was used in both Minimum Inhibitory Concentration (MIC) testing and Bauer-Kirby Disk Susceptibility testing for the pathogenic bacteria noted in the table below with the antimicrobial agents noted therein using the protocol and standards set forth in NCCLS Bulletin No. M2-A7 and in the Supplemental Tables appendix thereto, the disclosures of which are incorporated herein by reference.
(§2) The general procedure was as follows: pathogenic bacteria specimens were obtained from American Type Culture Collection control lots and 10 isolates were obtained from all species except Campylobacter, from which 6 isolates were obtained. Petri dishes 150 mm in diameter were autoclaved and filled with the culture medium of Example 1 and brought to room temperature. Each plate was then swab-inoculated with a suspension of one of the pathogenic bacteria equivalent to a 0.5 McFarland Standard, and then the antimicrobial-impregnated disk or antimicrobial-impregnated strip for IC measurement (Etest strip from Biodisk AB, of Solna, Sweden) were pressed into the surface of the culture medium. The plates were incubated at 35° C. for 24 hours in atmospheres containing 5-7% CO2 and the disk diffusion zones were measured, with the exception that plates inoculated with the Campylobacter species were placed into microaerophilic chambers from Mitsubishi Gas & Chemical Co. of Japan and incubated at 35° C. for 48 hours. The tests were conducted in duplicate for each pathogenic bacteria/antimicrobial agent combination on three batches of the culture medium of Example 1, for a total of six tests for each combination. Geometric mean MIC values and arithmetic mean values of zone diameters from the Disk Diffusion tests were calculated from the data, and are reported in the table below.

Haemophilus influenzae [3] = test: Bauer-Kirby Disk Susceptibility testing on the culture medium of Example 1; format: cell-based; settings: for Observed Disk Diff. Breakpoints I: I = intermediate; for Observed Disk Diff. Breakpoints R: R = resistant; for Observed Disk Diff. Breakpoints S: S = susceptible
Source text: as §1, §2

Viridans streptococci [4] = settings: different known culture media; cited from earlier work
S. pneumoniae [5] = test: MIC testing (Etest strip) on the culture medium of Example 1; format: cell-based; settings: for Observed MIC Breakpoints R: R = resistant; for Observed MIC Breakpoints S: S = susceptible; for Observed MIC Breakpoints I: I = intermediate
Source text: as §1, §2

Viridans streptococci [6] = test: as above; format: cell-based; settings: for Observed MIC Breakpoints R: R = resistant; for Observed MIC Breakpoints I: I = intermediate; for Observed MIC Breakpoints S: S = susceptible
Source text: as §1, §2

S. pneumoniae [7] = test: Bauer-Kirby Disk Susceptibility testing on the culture medium of Example 1; format: cell-based; settings: for Observed Disk Diff. Breakpoints R: R = resistant; for Observed Disk Diff. Breakpoints S: S = susceptible; for Observed Disk Diff. Breakpoints I: I = intermediate
Source text: as §1, §2

Viridans streptococci [8] = test: as above; format: cell-based; settings: for Observed Disk Diff. Breakpoints R: R = resistant; for Observed Disk Diff. Breakpoints S: S = susceptible; for Observed Disk Diff. Breakpoints I: I = intermediate
Source text: as §1, §2

S. pneumoniae [9] = settings: different known culture media, cited from earlier work
Campylobacter species [10] = test: MIC testing (Etest strip) on the culture medium of Example 1; format: cell-based; settings: microaerophilic, 48 hours; for Observed MIC Breakpoints R: R = resistant; for Observed MIC Breakpoints S: S = susceptible
Source text: as §1, §2

Neisseria gonorrhoeae [11] = test: as above; format: cell-based; settings: for Observed MIC Breakpoints I: I = intermediate; for Observed MIC Breakpoints R: R = resistant; for Observed MIC Breakpoints S: S = susceptible
Source text: as §1, §2

Neisseria gonorrhoeae [12] = settings: different known culture media; cited from earlier work
Campylobacter species [13] = test: Bauer-Kirby Disk Susceptibility testing on the culture medium of Example 1; format: cell-based; settings: microaerophilic, 48 hours; for Observed Disk Diff. Breakpoints R: R = resistant; for Observed Disk Diff. Breakpoints S: S = susceptible
Source text: as §1, §2

Neisseria gonorrhoeae [14] = test: as above; format: cell-based; settings: for Observed Disk Diff. Breakpoints I: I = intermediate; for Observed Disk Diff. Breakpoints R: R = resistant
Source text: as §1, §2

β-hemolytic streptococci [15] = test: MIC testing (Etest strip) on the culture medium of Example 1; format: cell-based; settings: for Observed MIC Breakpoints S: S = susceptible
Source text: as §1, §2

β-hemolytic streptococci [16] = test: Bauer-Kirby Disk Susceptibility testing on the culture medium of Example 1; format: cell-based; settings: for Observed Disk Diff. Breakpoints R: R = resistant
Source text: as §1, §2

β-hemolytic streptococci [17] = settings: different known culture media; cited from earlier work
Neisseria meningitides [18] = test: MIC testing (Etest strip) on the culture medium of Example 1; format: cell-based
Source text: as §1, §2

Neisseria meningitides [19] = test: Bauer-Kirby Disk Susceptibility testing on the culture medium of Example 1; format: cell-based
Source text: as §1, §2

CC1(C)S[C@@H]2[C@H](NC(=O)[C@H](N)c3ccccc3)C(=O)N2[C@H]1C(=O)O [Ampicillin]
Reported MIC Breakpoints (Haemophilus influenzae [1]): (1-4) μg/mL
Observed MIC Breakpoints I (Haemophilus influenzae [2]): 8 µg/mL
Observed MIC Breakpoints R (Haemophilus influenzae [2]): ≧16 μg/mL
Observed MIC Breakpoints S (Haemophilus influenzae [2]): ≦4 μg/mL
Observed Disk Diff. Breakpoints I (Haemophilus influenzae [3]): 13-16 mm
Observed Disk Diff. Breakpoints R (Haemophilus influenzae [3]): ≦12 mm
Observed Disk Diff. Breakpoints S (Haemophilus influenzae [3]): ≧17 mm

CO/N=C(\C(=O)N[C@@H]1C(=O)N2C(C(=O)O)=C(COC(C)=O)CS[C@H]12)c1csc(N)n1 [Cefotaxime]
Reported MIC Breakpoints (Viridans streptococci [4]): (0.5-2) μg/mL
Observed MIC Breakpoints R (S. pneumoniae [5]; Lower Respiratory Tract): ≧8 μg/mL
Observed MIC Breakpoints S (S. pneumoniae [5]; Lower Respiratory Tract): ≦4 μg/mL
Observed MIC Breakpoints I (S. pneumoniae [5]; meningitis): 1 µg/mL
Observed MIC Breakpoints R (S. pneumoniae [5]; meningitis): ≧2 μg/mL
Observed MIC Breakpoints S (S. pneumoniae [5]; meningitis): ≦0.5 μg/mL
Observed MIC Breakpoints R (Viridans streptococci [6]): ≧8 μg/mL
Observed Disk Diff. Breakpoints R (S. pneumoniae [7]; Lower Respiratory Tract): ≦23 mm
Observed Disk Diff. Breakpoints S (S. pneumoniae [7]; Lower Respiratory Tract): ≧24 mm
Observed Disk Diff. Breakpoints I (S. pneumoniae [7]; meningitis): 26-27 mm
Observed Disk Diff. Breakpoints R (S. pneumoniae [7]; meningitis): ≦25 mm
Observed Disk Diff. Breakpoints S (S. pneumoniae [7]; meningitis): ≧28 mm
Observed Disk Diff. Breakpoints R (Viridans streptococci [8]): ≦23 mm
Observed Disk Diff. Breakpoints S (Viridans streptococci [8]): ≧24 mm
Reported MIC Breakpoints (S. pneumoniae [9]; meningitis): (0.5-2) μg/mL

O=C(N[C@H](CO)[C@H](O)c1ccc([N+](=O)[O-])cc1)C(Cl)Cl [Chloramphenicol]
Reported MIC Breakpoints (Haemophilus influenzae [1]): (2-8) μg/mL
Observed MIC Breakpoints I (Haemophilus influenzae [2]): 4 µg/mL
Observed MIC Breakpoints R (Haemophilus influenzae [2]): ≧8 μg/mL
Observed MIC Breakpoints S (Haemophilus influenzae [2]): ≦2 μg/mL
Observed Disk Diff. Breakpoints I (Haemophilus influenzae [3]): 20-24 mm
Observed Disk Diff. Breakpoints R (Haemophilus influenzae [3]): ≦19 mm
Observed Disk Diff. Breakpoints S (Haemophilus influenzae [3]): ≧25 mm

O=C(O)c1cn(C2CC2)c2cc(N3CCNCC3)c(F)cc2c1=O [Ciprofloxacin]
Observed MIC Breakpoints I (Campylobacter species [10]; I = intermediate): 1 to 2 µg/mL
Observed MIC Breakpoints R (Campylobacter species [10]): ≧4 μg/mL
Observed MIC Breakpoints S (Campylobacter species [10]): ≦0.5 μg/mL
Observed MIC Breakpoints I (Neisseria gonorrhoeae [11]): 0.12 to 0.5 µg/mL
Observed MIC Breakpoints R (Neisseria gonorrhoeae [11]): ≧1 μg/mL
Observed MIC Breakpoints S (Neisseria gonorrhoeae [11]): ≦0.06 μg/mL
Reported MIC Breakpoints (Neisseria gonorrhoeae [12]): (0.06-1) μg/mL
Observed Disk Diff. Breakpoints I (Campylobacter species [13]; I = intermediate): 19-26 mm
Observed Disk Diff. Breakpoints R (Campylobacter species [13]): ≦18 mm
Observed Disk Diff. Breakpoints S (Campylobacter species [13]): ≧27 mm
Observed Disk Diff. Breakpoints I (Neisseria gonorrhoeae [14]): 25-34 mm
Observed Disk Diff. Breakpoints R (Neisseria gonorrhoeae [14]): ≦24 mm
Observed Disk Diff. Breakpoints S (Neisseria gonorrhoeae [14]; S = susceptible): ≧35 mm

CC[C@H]1OC(=O)[C@H](C)[C@@H](O[C@H]2C[C@@](C)(OC)[C@@H](O)[C@H](C)O2)[C@H](C)[C@@H](O[C@@H]2O[C@H](C)C[C@H](N(C)C)[C@H]2O)[C@](C)(O)C[C@@H](C)C(=O)[C@H](C)[C@@H](O)[C@]1(C)O [Erythromycin]
Reported MIC Breakpoints (Viridans streptococci [4]): (0.25-1) μg/mL
Observed MIC Breakpoints I (S. pneumoniae [5]): 1 to 32 µg/mL
Observed MIC Breakpoints R (S. pneumoniae [5]): ≧64 μg/mL
Observed MIC Breakpoints S (S. pneumoniae [5]): ≦0.5 μg/mL
Observed MIC Breakpoints I (Viridans streptococci [6]): 1 to 32 µg/mL
Observed MIC Breakpoints R (Viridans streptococci [6]): ≧64 μg/mL
Observed MIC Breakpoints S (Viridans streptococci [6]): ≦0.5 μg/mL
Observed MIC Breakpoints R (Campylobacter species [10]): ≧8 μg/mL
Observed MIC Breakpoints S (Campylobacter species [10]): ≦4 μg/mL
Observed MIC Breakpoints I (β-hemolytic streptococci [15]; I = intermediate): 1 to 32 µg/mL
Observed MIC Breakpoints R (β-hemolytic streptococci [15]; R = resistant): ≧64 μg/mL
Observed MIC Breakpoints S (β-hemolytic streptococci [15]): ≦0.5 μg/mL
Observed Disk Diff. Breakpoints I (S. pneumoniae [7]): 9-23 mm
Observed Disk Diff. Breakpoints R (S. pneumoniae [7]): ≦8 mm
Observed Disk Diff. Breakpoints S (S. pneumoniae [7]): ≧24 mm
Observed Disk Diff. Breakpoints I (Viridans streptococci [8]): 9-23 mm
Observed Disk Diff. Breakpoints R (Viridans streptococci [8]): ≦8 mm
Observed Disk Diff. Breakpoints S (Viridans streptococci [8]): ≧24 mm
Observed Disk Diff. Breakpoints R (Campylobacter species [13]): ≦20 mm
Observed Disk Diff. Breakpoints S (Campylobacter species [13]): ≧21 mm
Observed Disk Diff. Breakpoints R (β-hemolytic streptococci [16]): ≦8 mm
Observed Disk Diff. Breakpoints S (β-hemolytic streptococci [16]; S = susceptible): ≧21 mm
Reported MIC Breakpoints (S. pneumoniae [9]): (0.25-1) μg/mL
Reported MIC Breakpoints (β-hemolytic streptococci [17]): (0.25-1) μg/mL

CN(C)[C@@H]1C(O)=C(C(N)=O)C(=O)[C@@]2(O)C(O)=C3C(=O)c4c(O)cccc4[C@@](C)(O)[C@H]3C[C@@H]12 [Tetracycline]
Observed MIC Breakpoints I (Haemophilus influenzae [2]): 4 µg/mL
Observed MIC Breakpoints R (Haemophilus influenzae [2]): ≧8 μg/mL
Observed MIC Breakpoints S (Haemophilus influenzae [2]): ≦2 μg/mL
Observed MIC Breakpoints I (S. pneumoniae [5]): 2 to 4 µg/mL
Observed MIC Breakpoints R (S. pneumoniae [5]): ≧8 μg/mL
Observed MIC Breakpoints S (S. pneumoniae [5]): ≦1 μg/mL
Observed MIC Breakpoints I (Viridans streptococci [6]): 2 to 4 µg/mL
Observed MIC Breakpoints R (Viridans streptococci [6]): ≧8 μg/mL
Observed MIC Breakpoints S (Viridans streptococci [6]): ≦1 μg/mL
Observed Disk Diff. Breakpoints I (Haemophilus influenzae [3]): 19-24 mm
Observed Disk Diff. Breakpoints R (Haemophilus influenzae [3]): ≦20 mm
Observed Disk Diff. Breakpoints S (Haemophilus influenzae [3]): ≧25 mm
Observed Disk Diff. Breakpoints I (S. pneumoniae [7]): 14-22 mm
Observed Disk Diff. Breakpoints R (S. pneumoniae [7]): ≦13 mm
Observed Disk Diff. Breakpoints S (S. pneumoniae [7]): ≧23 mm
Observed Disk Diff. Breakpoints I (Viridans streptococci [8]): 18-22 mm
Observed Disk Diff. Breakpoints R (Viridans streptococci [8]): ≦17 mm
Observed Disk Diff. Breakpoints S (Viridans streptococci [8]): ≧23 mm

Penicillin
Reported MIC Breakpoints (Viridans streptococci [4]): (0.12-4) μg/mL
Observed MIC Breakpoints I (Neisseria meningitides [18]; I = intermediate): 0.25 µg/mL
Observed MIC Breakpoints R (Neisseria meningitides [18]; R = resistant): ≧0.5 μg/mL
Observed MIC Breakpoints S (Neisseria meningitides [18]; S = susceptible): ≦0.12 μg/mL
Observed MIC Breakpoints I (S. pneumoniae [5]; Lower Respiratory Tract): 2 µg/mL
Observed MIC Breakpoints R (S. pneumoniae [5]; Lower Respiratory Tract): ≧4 μg/mL
Observed MIC Breakpoints S (S. pneumoniae [5]; Lower Respiratory Tract): ≦1 μg/mL
Observed MIC Breakpoints I (S. pneumoniae [5]; meningitis): 0.25 to 1 µg/mL
Observed MIC Breakpoints R (S. pneumoniae [5]; meningitis): ≧2 μg/mL
Observed MIC Breakpoints S (S. pneumoniae [5]; meningitis): ≦0.12 μg/mL
Observed MIC Breakpoints I (Viridans streptococci [6]): 2 µg/mL
Observed MIC Breakpoints R (Viridans streptococci [6]): ≧4 μg/mL
Observed MIC Breakpoints S (Viridans streptococci [6]): ≦1 μg/mL
Observed MIC Breakpoints S (β-hemolytic streptococci [15]): 0.12 µg/mL
Observed MIC Breakpoints I (Neisseria gonorrhoeae [11]): 0.12 to 1 µg/mL
Observed MIC Breakpoints R (Neisseria gonorrhoeae [11]): ≧2 μg/mL
Observed MIC Breakpoints S (Neisseria gonorrhoeae [11]): ≦0.06 μg/mL
Reported MIC Breakpoints (Neisseria gonorrhoeae [12]): (0.06-2) μg/mL
Observed Disk Diff. Breakpoints I (Neisseria meningitides [19]; I = intermediate): 24-25 mm
Observed Disk Diff. Breakpoints R (Neisseria meningitides [19]; R = resistant): ≦23 mm
Observed Disk Diff. Breakpoints S (Neisseria meningitides [19]; S = susceptible): ≧26 mm
Observed Disk Diff. Breakpoints I (Viridans streptococci [8]): 20-23 mm
Observed Disk Diff. Breakpoints R (Viridans streptococci [8]): ≦19 mm
Observed Disk Diff. Breakpoints S (Viridans streptococci [8]): ≧24 mm
Observed Disk Diff. Breakpoints R (β-hemolytic streptococci [16]): ≦26 mm
Observed Disk Diff. Breakpoints I (Neisseria gonorrhoeae [14]): 24-38 mm
Observed Disk Diff. Breakpoints R (Neisseria gonorrhoeae [14]): ≦23 mm
Reported MIC Breakpoints (S. pneumoniae [9]; meningitis): (0.06-2) μg/mL
